Legend:
Type in all cases: biochemical
c-Raf-1 = target: T1, c-Raf-1 (Homo sapiens, UniProt P04049); assay: AlphaScreen kinase assay, c-Raf-1; conditions: read-out: IC50, activity toward kinase c-Raf-1
T1 construct: purchased Upstate Biotechnology

Fak = target: T2, Fak (Homo sapiens, UniProt Q05397); assay: AlphaScreen kinase assay, Fak; conditions: read-out: IC50, activity toward kinase Fak
T2 construct: P1358.pFastBacHtb FAK S411-Q686-X; His6 with pFastBacHTb leader (TEV site) (N); made in house; host or cells: Sf9 (baculovirus)

B-Raf V600E = target: T3, B-Raf V600E (Homo sapiens, UniProt P15056, V600E); assay: AlphaScreen kinase assay, B-Raf V600E; conditions: read-out: IC50, activity toward kinase B-Raf V600E
T3 construct: P4254. pFastBacBD-CDC37 BRAF D437-K722-X, V600E; His6 with pFastBac HT leader (TEV site) (N); made in house; host or cells: Sf9 (baculovirus; chaperone CDC37 co-expressed)

B-Raf = target: T4, B-Raf (Homo sapiens, UniProt P15056); assay: AlphaScreen kinase assay, B-Raf; conditions: read-out: IC50, activity toward kinase B-Raf
T4 construct: purchased Upstate Biotechnology

FGFR1 = target: T5, FGFR1 (Homo sapiens, UniProt P11362, C488A/C584S); assay: AlphaScreen kinase assay, FGFR1; conditions: read-out: IC50, activity toward kinase FGFR
T5 construct: P1351.pET N6 BI-PTP FGFR A458-E765-X C488A, C584S; made in house; host or cells: E. coli (PTP1B co-expressed)

Src = target: T6, Src (Homo sapiens, UniProt P12931); assay: AlphaScreen kinase assay, Src; conditions: read-out: IC50, activity toward kinase Src
T6 construct: P1144. pET-N6 BI-PTP SRC V86-L536-X; made in house

Kit = target: T7, Kit (Homo sapiens, UniProt P10721); assay: AlphaScreen kinase assay, Kit; conditions: read-out: IC50, activity toward kinase Kit
T7 construct: P1332.N6 BI PTP KIT M552-K948-X COD; His6 (N); made in house; host or cells: E. coli (PTP1B co-expressed)

Fms = target: T8, Fms (Homo sapiens, UniProt P07333); assay: AlphaScreen kinase assay, Fms; conditions: read-out: IC50, activity toward kinase Fms
T8 construct: purchased Upstate Biotechnology

Flt1 = target: T9, Flt1 (Homo sapiens, UniProt P17948); assay: AlphaScreen kinase assay, Flt1; conditions: read-out: IC50, activity toward kinase Flt1
T9 construct: P1826.pETN6 BI-PTP FLT1 M799-D1165-X WT; His6 (N); made in house; host or cells: E. coli (PTP1B co-expressed)
T9 sequence (P17948 with tags, fused parts or gaps): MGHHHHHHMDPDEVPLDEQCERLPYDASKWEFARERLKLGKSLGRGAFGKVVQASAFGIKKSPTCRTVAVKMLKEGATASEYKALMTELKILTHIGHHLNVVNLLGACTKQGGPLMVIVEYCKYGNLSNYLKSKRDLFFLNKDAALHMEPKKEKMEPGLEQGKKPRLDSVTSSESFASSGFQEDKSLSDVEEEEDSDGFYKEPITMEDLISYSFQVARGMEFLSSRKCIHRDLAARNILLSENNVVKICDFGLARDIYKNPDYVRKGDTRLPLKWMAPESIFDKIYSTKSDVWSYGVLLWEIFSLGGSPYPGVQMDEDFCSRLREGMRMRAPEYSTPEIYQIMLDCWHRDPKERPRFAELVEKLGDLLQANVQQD

Jnk1 = target: T10, Jnk1 (Homo sapiens, UniProt P45983); assay: AlphaScreen kinase assay, Jnk1; conditions: read-out: IC50, activity toward kinase Jnk1
T10 construct: purchased Upstate Biotechnology

Jnk3 = target: T11, Jnk3 (Homo sapiens, UniProt P53779); assay: AlphaScreen kinase assay, Jnk3; conditions: read-out: IC50, activity toward kinase Jnk3
T11 construct: purchased Upstate Biotechnology

Measured: IC50

T7 sequence (P10721 with tags, fused parts or gaps): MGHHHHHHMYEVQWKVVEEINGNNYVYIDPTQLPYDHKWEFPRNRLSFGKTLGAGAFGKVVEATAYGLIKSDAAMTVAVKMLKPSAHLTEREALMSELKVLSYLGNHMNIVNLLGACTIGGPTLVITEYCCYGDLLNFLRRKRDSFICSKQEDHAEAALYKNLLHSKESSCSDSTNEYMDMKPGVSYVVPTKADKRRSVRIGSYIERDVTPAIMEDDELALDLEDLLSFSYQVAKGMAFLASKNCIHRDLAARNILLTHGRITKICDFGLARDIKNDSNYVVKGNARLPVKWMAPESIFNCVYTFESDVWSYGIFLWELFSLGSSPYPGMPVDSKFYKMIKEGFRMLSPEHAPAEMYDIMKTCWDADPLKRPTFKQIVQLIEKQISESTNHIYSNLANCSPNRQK
T3 sequence (P15056 with tags, fused parts or gaps V600E): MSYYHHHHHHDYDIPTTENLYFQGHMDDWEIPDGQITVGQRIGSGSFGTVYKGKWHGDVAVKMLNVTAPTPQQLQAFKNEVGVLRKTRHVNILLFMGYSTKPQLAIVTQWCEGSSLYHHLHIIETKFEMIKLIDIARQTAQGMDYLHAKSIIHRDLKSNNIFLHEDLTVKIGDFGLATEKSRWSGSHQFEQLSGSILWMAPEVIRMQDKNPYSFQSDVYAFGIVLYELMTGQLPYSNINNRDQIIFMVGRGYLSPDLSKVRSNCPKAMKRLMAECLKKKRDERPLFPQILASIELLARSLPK
T2 sequence (Q05397 411-686): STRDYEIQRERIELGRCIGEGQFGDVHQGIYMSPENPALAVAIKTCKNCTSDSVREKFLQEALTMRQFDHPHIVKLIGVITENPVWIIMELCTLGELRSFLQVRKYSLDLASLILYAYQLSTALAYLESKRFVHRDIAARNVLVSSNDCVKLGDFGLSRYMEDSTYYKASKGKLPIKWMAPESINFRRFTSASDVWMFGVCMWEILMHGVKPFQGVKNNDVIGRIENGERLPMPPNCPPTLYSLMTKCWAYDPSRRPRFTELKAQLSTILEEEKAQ
T8 sequence (P07333 20-972): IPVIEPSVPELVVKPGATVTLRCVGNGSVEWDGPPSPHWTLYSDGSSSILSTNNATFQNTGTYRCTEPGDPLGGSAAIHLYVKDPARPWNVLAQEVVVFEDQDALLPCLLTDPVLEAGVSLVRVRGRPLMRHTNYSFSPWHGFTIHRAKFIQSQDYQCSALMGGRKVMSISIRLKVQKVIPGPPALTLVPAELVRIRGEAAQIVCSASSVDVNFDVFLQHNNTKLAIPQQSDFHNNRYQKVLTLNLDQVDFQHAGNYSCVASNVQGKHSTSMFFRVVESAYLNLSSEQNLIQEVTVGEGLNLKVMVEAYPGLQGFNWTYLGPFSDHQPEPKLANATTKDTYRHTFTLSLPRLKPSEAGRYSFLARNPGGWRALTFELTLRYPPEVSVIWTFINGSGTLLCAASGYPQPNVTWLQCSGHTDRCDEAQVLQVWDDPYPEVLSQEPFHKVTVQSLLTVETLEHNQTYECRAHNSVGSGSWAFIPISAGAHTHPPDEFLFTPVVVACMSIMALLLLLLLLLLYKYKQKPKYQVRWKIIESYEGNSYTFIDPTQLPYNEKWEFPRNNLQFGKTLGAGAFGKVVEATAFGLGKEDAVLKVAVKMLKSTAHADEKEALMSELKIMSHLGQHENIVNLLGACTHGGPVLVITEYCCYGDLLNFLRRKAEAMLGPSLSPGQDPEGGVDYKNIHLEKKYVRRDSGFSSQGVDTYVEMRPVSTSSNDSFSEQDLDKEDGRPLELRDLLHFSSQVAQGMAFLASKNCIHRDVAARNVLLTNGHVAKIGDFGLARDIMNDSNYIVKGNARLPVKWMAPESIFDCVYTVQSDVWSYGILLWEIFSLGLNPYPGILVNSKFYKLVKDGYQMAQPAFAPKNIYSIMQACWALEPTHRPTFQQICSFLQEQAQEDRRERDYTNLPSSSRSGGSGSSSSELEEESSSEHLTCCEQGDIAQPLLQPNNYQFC
T1 sequence (P04049 whole entry): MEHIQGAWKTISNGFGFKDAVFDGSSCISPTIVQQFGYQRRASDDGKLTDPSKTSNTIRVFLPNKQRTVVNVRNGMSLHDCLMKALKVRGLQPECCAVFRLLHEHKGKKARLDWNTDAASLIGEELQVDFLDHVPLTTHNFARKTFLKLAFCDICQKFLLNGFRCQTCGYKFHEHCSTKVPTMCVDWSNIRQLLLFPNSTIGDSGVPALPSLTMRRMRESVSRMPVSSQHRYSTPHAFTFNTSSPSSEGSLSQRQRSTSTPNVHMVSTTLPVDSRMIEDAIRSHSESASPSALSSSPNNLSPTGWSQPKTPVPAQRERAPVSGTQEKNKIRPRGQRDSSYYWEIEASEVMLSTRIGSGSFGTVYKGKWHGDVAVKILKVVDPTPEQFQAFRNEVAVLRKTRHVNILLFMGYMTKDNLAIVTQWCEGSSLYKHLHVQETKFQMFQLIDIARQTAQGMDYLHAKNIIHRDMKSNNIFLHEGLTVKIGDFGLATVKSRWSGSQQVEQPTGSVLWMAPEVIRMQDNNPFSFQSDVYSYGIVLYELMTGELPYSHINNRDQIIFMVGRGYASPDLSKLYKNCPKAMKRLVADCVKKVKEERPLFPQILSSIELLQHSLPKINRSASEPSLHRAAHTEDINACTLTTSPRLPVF
T10 sequence (P45983 whole entry): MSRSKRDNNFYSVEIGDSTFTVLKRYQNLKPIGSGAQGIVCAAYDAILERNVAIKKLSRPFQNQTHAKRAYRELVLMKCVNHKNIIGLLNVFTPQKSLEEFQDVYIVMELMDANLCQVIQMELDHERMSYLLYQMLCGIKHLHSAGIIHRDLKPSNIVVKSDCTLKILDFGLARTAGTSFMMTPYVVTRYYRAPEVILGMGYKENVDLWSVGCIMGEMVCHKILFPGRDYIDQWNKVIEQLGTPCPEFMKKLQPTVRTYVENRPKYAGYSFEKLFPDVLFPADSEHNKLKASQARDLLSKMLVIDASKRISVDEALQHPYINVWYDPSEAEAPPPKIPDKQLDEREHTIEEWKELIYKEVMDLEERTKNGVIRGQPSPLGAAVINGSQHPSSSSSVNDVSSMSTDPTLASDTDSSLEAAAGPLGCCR
T6 sequence (P12931 with tags, fused parts or gaps): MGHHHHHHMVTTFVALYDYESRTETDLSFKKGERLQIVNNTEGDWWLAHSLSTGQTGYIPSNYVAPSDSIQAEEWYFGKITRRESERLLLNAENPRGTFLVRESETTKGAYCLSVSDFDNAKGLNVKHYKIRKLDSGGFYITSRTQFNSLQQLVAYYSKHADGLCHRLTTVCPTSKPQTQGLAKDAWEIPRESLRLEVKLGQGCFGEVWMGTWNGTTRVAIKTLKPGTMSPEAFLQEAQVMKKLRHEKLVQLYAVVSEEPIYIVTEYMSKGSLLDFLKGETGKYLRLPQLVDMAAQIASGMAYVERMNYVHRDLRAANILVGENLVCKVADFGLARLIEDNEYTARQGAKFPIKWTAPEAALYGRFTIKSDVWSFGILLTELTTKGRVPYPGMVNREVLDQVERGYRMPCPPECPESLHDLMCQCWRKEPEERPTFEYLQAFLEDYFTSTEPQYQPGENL
T5 sequence (P11362 458-765 C488A/C584S): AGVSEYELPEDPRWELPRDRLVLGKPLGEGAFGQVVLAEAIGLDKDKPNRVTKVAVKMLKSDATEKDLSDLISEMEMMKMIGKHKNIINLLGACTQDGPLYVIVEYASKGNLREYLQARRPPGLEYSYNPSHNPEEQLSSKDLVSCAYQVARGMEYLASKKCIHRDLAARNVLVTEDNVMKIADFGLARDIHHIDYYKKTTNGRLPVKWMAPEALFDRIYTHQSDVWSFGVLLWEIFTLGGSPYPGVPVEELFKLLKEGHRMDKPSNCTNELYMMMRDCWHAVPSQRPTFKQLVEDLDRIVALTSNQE
T4 sequence (P15056 whole entry): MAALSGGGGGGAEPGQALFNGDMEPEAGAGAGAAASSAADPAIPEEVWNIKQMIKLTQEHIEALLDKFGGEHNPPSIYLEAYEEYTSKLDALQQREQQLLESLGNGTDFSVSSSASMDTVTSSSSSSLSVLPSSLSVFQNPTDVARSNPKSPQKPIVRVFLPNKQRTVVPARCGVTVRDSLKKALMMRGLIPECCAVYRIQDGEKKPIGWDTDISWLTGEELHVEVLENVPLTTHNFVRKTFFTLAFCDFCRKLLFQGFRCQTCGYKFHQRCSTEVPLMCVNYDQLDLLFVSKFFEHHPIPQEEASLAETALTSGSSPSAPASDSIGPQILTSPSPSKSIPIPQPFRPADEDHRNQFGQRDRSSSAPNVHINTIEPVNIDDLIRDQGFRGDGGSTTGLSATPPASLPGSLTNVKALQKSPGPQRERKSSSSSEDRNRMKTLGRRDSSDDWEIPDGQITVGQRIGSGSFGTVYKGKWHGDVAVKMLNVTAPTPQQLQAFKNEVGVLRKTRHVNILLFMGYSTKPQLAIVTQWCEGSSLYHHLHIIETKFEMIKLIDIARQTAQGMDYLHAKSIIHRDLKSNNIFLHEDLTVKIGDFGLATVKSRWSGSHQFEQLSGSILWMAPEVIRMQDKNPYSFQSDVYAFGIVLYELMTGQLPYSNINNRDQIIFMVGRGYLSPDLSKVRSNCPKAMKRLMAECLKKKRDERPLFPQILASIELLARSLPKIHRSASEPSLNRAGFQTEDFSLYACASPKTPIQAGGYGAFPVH

CCCS(=O)(=O)Nc1ccc(F)c(C(=O)c2c[nH]c3ncc(-c4ccc(N(C)C)cc4)cc23)c1F [Compound P-0889, Propane-1-sulfonic acid {3-[5-(4-dimethylamino-phenyl)-1H-pyrrolo[2,3-b]pyridine-3-carbonyl]-2,4-difluoro-phenyl}-amide]
not listed: Fms | Flt1 | Jnk1 | Jnk3
≤ 10 µM: all other assays above

CCCS(=O)(=O)Nc1ccc(F)c(C(=O)c2c[nH]c3ncc(C)cc23)c1F [Compound P-1249]
not listed: Flt1 | Jnk1 | Jnk3
≤ 10 µM: all other assays above

CCCCS(=O)(=O)Nc1cccc(C(=O)c2c[nH]c3ncc(Cl)cc23)c1F [Compound P-1250, Butane-1-sulfonic acid [3-(5-chloro-1H-pyrrolo[2,3-b]pyridine-3-carbonyl)-2-fluoro-phenyl]-amide]
not listed: Jnk1 | Jnk3
≤ 10 µM: all other assays above

O=C(c1cccc(NS(=O)(=O)c2ccccc2)c1F)c1c[nH]c2ncc(Cl)cc12 [Compound P-1255, N-[3-(5-chloro-1H-pyrrolo[2,3-b]pyridine-3-carbonyl)-2-fluoro-phenyl]benzenesulfonamide]
not listed: Jnk1 | Jnk3
≤ 10 µM: all other assays above

CCCS(=O)(=O)Nc1cccc(C(=O)c2c[nH]c3ncc(OC)cc23)c1F [Compound P-1256, Propane-1-sulfonic acid [2-fluoro-3-(5-methoxy-1H-pyrrolo[2,3-b]pyridine-3-carbonyl)-phenyl]-amide]
not listed: Fms | Jnk3
≤ 10 µM: all other assays above

CC(=O)Nc1cccc(-c2cnc3[nH]cc(Cc4ccccc4F)c3c2)c1 [Compound P-1347]
not listed: c-Raf-1 | Fms | Flt1
≤ 10 µM: all other assays above

COc1ccc(F)c(C(=O)c2c[nH]c3ncc(-c4ccccc4)cc23)c1F [Compound P-1387, (2,6-Difluoro-3-methoxy-phenyl)-(5-phenyl-1H-pyrrolo[2,3-b]pyridin-3-yl)-methanone]
not listed: Flt1 | Jnk1 | Jnk3
≤ 10 µM: all other assays above

COc1ccc(F)c(C(=O)c2c[nH]c3ncc(-c4cccc(NS(C)(=O)=O)c4)cc23)c1F [Compound P-1391, N-{3-[3-(2,6-Difluoro-3-methoxy-benzoyl)-1H-pyrrolo[2,3-b]pyridin-5-yl]-phenyl}-methanesulfonamide]
not listed: Flt1 | Jnk1 | Jnk3
≤ 10 µM: all other assays above

CCCS(=O)(=O)Nc1ccc(F)c(Cc2c[nH]c3ncc(-c4cccnc4)cc23)c1F [Compound P-1397]
not listed: Flt1 | Jnk1 | Jnk3
≤ 10 µM: all other assays above

CCCS(=O)(=O)Nc1ccc(F)c(C(=O)c2c[nH]c3ncc(Br)cc23)c1 [Compound P-1403, Propane-1-sulfonic acid [3-(5-bromo-1H-pyrrolo[2,3-b]pyridine-3-carbonyl)-4-fluoro-phenyl]-amide]
not listed: B-Raf | Jnk1 | Jnk3
≤ 10 µM: all other assays above

CCCS(=O)(=O)Nc1ccc(F)c(C(=O)c2c[nH]c3ncc(OC)cc23)c1 [Compound P-1433]
not listed: Jnk3
≤ 10 µM: all other assays above

O=C(Nc1cccc(Cc2c[nH]c3ncc(-c4cccnc4)cc23)c1)NC1CCCC1 [Compound P-1446, 1-Cyclopentyl-3-[3-(5-pyridin-3-yl-1H-pyrrolo[2,3-b]pyridin-3-ylmethyl)-phenyl]-urea]
not listed: c-Raf-1 | Fms | Jnk3
≤ 10 µM: all other assays above

O=C(Nc1ccc(F)c(C(O)c2c[nH]c3ncc(Br)cc23)c1F)OCc1ccccc1 (stereo not shown) [Compound P-1451]
not listed: Flt1 | Jnk1 | Jnk3
≤ 10 µM: all other assays above

Fc1cccc(F)c1Cc1c[nH]c2ncc(-c3cccnc3)cc12 [Compound P-1477, 3-(2,6-Difluoro-benzyl)-5-pyridin-3-yl-1H-pyrrolo[2,3-b]pyridine]
not listed: c-Raf-1 | Kit | Flt1 | Jnk1
≤ 10 µM: all other assays above
